In US7098307B2, “Neo-tryptophan” (Mayo Foundation for Medical Education and Research, priority 1998, dated 2006):
“And” between values parts separate entries of the source, which are not always exact repeats. Equal values may be shown once. Square brackets hold non-standard residues; d marks the D form. Peptide text beside a SMILES is read from it. Ala(indol-4-yl) = N[C@@H](Cc1cccc2[nH]ccc12)C(=O)O; NMeR = CN[C@@H](CCCNC(=N)N)C(=O)O; Tle = CC(C)(C)[C@H](N)C(=O)O

Tests used:
[1] = Catalepsy bar test in rats; format: in vivo, rat
Experimental: The following experiments were performed to assess the ability of NT69L to cause and influence catalepsy. Male Sprague-Dawley rats (150–250 g) or CD-1 mice (24–26 g) were housed in a temperature-controlled room in groups of five with free access to food and water. The animals were kept on a 12 hour light/dark cycle, and all tests were performed during the light cycle. […] Thirty minutes after injection, the animals were tested for catalepsy. For rats, the test involved simply placing the animal's fore paws on a suspended metal bar 10 mm in diameter, 11 cm above the counter. The time elapsed until the animal's fore paws touch the counter was recorded. […] The cut-off time was 20 seconds, and each animal was tested three times for each time point.

[2] = Hot plate test (antinociception, % MPE) in rats
[3] = Degradation in rat plasma (HPLC peak area); format: in vitro ADME; conditions: 25% plasma, 37° C., 0.5 mg/mL polypeptide, read-out: half-time, Plasma Rat (converted)
From the text: (§1) For the degradation studies, data were plotted in linear form as a semi-log plot with SigmaPlot for Windows Version 4.00. Linear regression on these plots provided the parameters used to calculate the half-time (t1/2) for degradation of each polypeptide. The correlation coefficient (R) for the linear regression was taken as a measure of the goodness-of-fit.

α2-adrenergic receptors = assay: Radiolabeled competitive binding, human brain tissue, adrenergic α2
NT binding sites = assay: [125I]NT binding in brain tissue of rats chronically treated; format: in vivo, rat; conditions: 1 mg/kg ip daily four days, 5 mg/kg day five
Experimental: The effect of chronic treatment with NT69L on the number of NT binding sites within brain was assessed. Rats were treated daily with NT69L (1 mg/kg; ip) for four days. On day five, the rats were treated with 5 mg/kg (ip) NT69L, tested behaviorally, and then sacrificed. The PAG and rest of brain were dissected from the animal and used in NT binding analysis. Briefly, homogenates were prepared from freshly obtained PAG and the rest of brain of rats according to Goedert et al. (Brain Res. 304, 71–81 (1984)) with the following modifications: the assay buffer contained the peptidase inhibitors 1,10 phenanthroline (1 μM) and aprotonin (5 mg/ml). For PAG and rest of brain binding assays, tissues were incubated with 0.3 nM [^125I]NT (NEN, Boston, Mass.) at room temperature for 30 minutes. Total and nonspecific binding was measured and the binding sites were normalized to polypeptide concentrations by BCA protein determination (Pierce Chemical Co., Rockford, Ill.).

5HT2A receptor = 5HT2A receptor (Homo sapiens, UniProt P28223); assay: Competitive binding with [3H]ketanserin, human brain tissue
[4] = Apomorphine-induced climbing, sniffing and licking behavior in rats; format: in vivo, rat
Experimental: Apomorphine was used to assess the ability of NT analogs to act as neuroleptics. Briefly, male Sprague-Dawley rats were pretreated intraperitoneally with either NT69L or saline only. Thirty minutes following pretreatment, the rats received a subcutaneous injection of apomorphine (600 μg/kg). Occasionally, the effectiveness of NT69L was assessed by measuring antinociception and hypothermia just prior to apomorphine administration. Control animals included rats receiving NT69L followed by saline only, and rats receiving no treatment. The apomorphine was dissolved in oxygen-free boiled 0.9% NaCl solution containing 0.1% ascorbic acid and 0.1% metabisulfite to prevent oxidation. The volume of injection was 1 mL/kg under the loose skin at the back of the animal's neck. Inunediately following injection, the rats were placed in cages for observation. About 5–10 minutes later, behavioral monitoring was initiated and lasted for one hour. Climbing episodes were measured by observing the number of times the rat moved up and down in a vertical position during a two minute observation period. Statistical analysis was done using the Student's t-test with P<0.05 being considered significant. Graphs and ED50 data were generated using GraphPad Prism® software (version 2.01, GraphPad Software, Inc., San Diego, Calif.).

[5] = Body temperature (hypothermia) in rats; conditions: for change in body temperature: 5 mg/kg ip
[6] = Catalepsy (fixed rearing posture) in mice; format: in vivo; conditions: 5 mg/kg ip
Experimental: The following experiments were performed to assess the ability of NT69L to cause and influence catalepsy. Male Sprague-Dawley rats (150–250 g) or CD-1 mice (24–26 g) were housed in a temperature-controlled room in groups of five with free access to food and water. The animals were kept on a 12 hour light/dark cycle, and all tests were performed during the light cycle. The test for catalepsy is well established and quite simple (Munkvad et al., Brain Behav. Evol. 1:89–100(1968)). […] Thirty minutes after injection, the animals were tested for catalepsy. For rats, the test involved simply placing the animal's fore paws on a suspended metal bar 10 mm in diameter, 11 cm above the counter. The time elapsed until the animal's fore paws touch the counter was recorded. […] For mice, catalepsy was scored based on the time that the mice maintained a fixed rearing posture against the side of the cage (Adams et al., Proc. Natl. Acad. Sci. USA 94:12157–12161 (1997)). The cut-off time was 20 seconds, and each animal was tested three times for each time point.

[7] = Degradation in human plasma (HPLC peak area); format: in vitro ADME; conditions: human; 25% plasma, 37° C., 0.5 mg/mL polypeptide; read-out: half-time, Plasma Human (converted)
From the text: as §1

dopamine D2 receptors = biological target: T1, dopamine D2 receptors (Homo sapiens, UniProt P14416); assay: Radiolabeled competitive binding, human brain tissue, dopamine
T1 construct: Human brain tissue; from tissue; host or cells: human brain tissue

[8] = 5 mg/kg ip after four days at 1 mg/kg ip
[9] = intraperitoneal administration (NT64L 1 mg/kg)
[10] = 1 mg/kg ip, 30 minutes before apomorphine

## CN[C@@H](CCCNC(=N)N)C(=O)N[C@@H](CCCCN)C(=O)N1CCC[C@H]1C(=O)N[C@@H](Cc1cccc2[nH]ccc12)C(=O)N[C@H](C(=O)N[C@@H](CC(C)C)C(=O)O)C(C)(C)C [NT69L] (H-[NMeR]KP[Ala(indol-4-yl)][Tle]L-OH; N-terminus and C-terminus assumed)
[1]; 5 mg/kg ip
  catalepsy scores in rats: no effect on catalepsy scores
[1]; 5 mg/kg ip 30 minutes after haloperidol 1 mg/kg ip
  haloperidol-induced catalepsy, test compound given after: reversed
[1]; 5 mg/kg ip 30 minutes before haloperidol 1 mg/kg ip
  haloperidol-induced catalepsy, test compound given before: did not exhibit significant cataleptic behavior
[1]; after the third and fourth days of NT69L 1 mg/kg ip
  catalepsy on haloperidol injection after chronic treatment: exhibited catalepsy
[1]; haloperidol 120 μg/kg ip, NT69L ip 40 minutes later, scored at 130 minutes
  ED50 reversal of haloperidol-induced catalepsy: 0.26 mg/kg
[2]; 1 mg/kg intraperitoneal
  time up to which peak % MPE of 100% was observed: about 200 minutes
[2]; 1 mg/kg intraperitoneal, rats
  time of Peak % MPE: 300 min
[2]; 1 mg/kg ip daily, day 1
  % MPE after the first injection: 100%
[2]; 1 mg/kg ip daily, day 2
  analgesic effect after the second injection: no analgesic effect
[2]; 1 mg/kg ip daily, day 3
  analgesic effect after the third injection: no analgesic effect
[2]; [8]
  analgesic effect on 5× challenge: no analgesic effect
[2]; [9]
  induction of antinociception (hot plate): did induce
[2]; intraperitoneal, @ 90 min
  ED50 % MPE: 0.3 mg/kg
[2]; nasal, 5 mg/kg, at 60 minutes
  peak % MPE value: 70%
[2]; oral, 20 mg/kg
  peak % MPE value: 11%
  time of Peak % MPE: 30 min
[3]
  half-life at 0.5 mg/mL: 10.4 days
α2-adrenergic receptors
  Kd: 58.6 µM
NT binding sites; control 2.34
  [125I]NT binding, PAG tissue: 1.89 dpm/μg protein
NT binding sites; control 3.1
  [125I]NT binding, rest of brain tissue: 2.1 dpm/μg protein
5HT2A receptor
  Kd: 34.6 µM
[4]; [10]
  effect on apomorphine-induced climbing behavior: long-lasting blockade of the climbing behavior
  effect on apomorphine-induced sniffing and licking behaviors: did not influence
[4]; 5 mg/kg ip
  effect on apomorphine-induced climbing behavior: completely blocked
[4]; ip, 75 minutes after NT69L, 45 minutes after apomorphine 600 μg/kg sc
  ED50 blockade of apomorphine-induced climbing: 0.016 mg/kg
[5]; 1 mg/kg intraperitoneal
  time up to which body temperature reduction remained significant: up to 300 minutes
[5]; 1 mg/kg intraperitoneal, rats
  Peak BT change: −5.3 °C and −5.3 @ ° C.
[5]; 1 mg/kg ip daily, day 1
  body temperature lowering after the first injection: about 4 degrees
[5]; 1 mg/kg ip daily, day 2
  body temperature lowering after the second injection: 1.5 degrees
[5]; 1 mg/kg ip daily, day 3
  body temperature lowering after the third injection: no body temperature lowering was detected
[5]; [8]
  reduction in body temperature on 5× challenge: comparable to the reduction normally observed in naive rats
[5]; 30 minutes after injection
  change in body temperature: about −3 °C
[5]; 77 minutes after injection
  change in body temperature: about −4 °C
[5]; [9]
  induction of hypothermia: did induce
[5]; intraperitoneal, @ 90 min
  ED50 BT: 0.4 mg/kg
[5]; intraperitoneal, dose not restated
  peak reduction in body temperature: 5.3 °C
[5]; ip, at 90 minutes
  ED50 body temperature lowering: 0.39 mg/kg
[5]; nasal, 5 mg/kg, at 30 minutes
  peak reduction in body temperature (change): −1.4 °C
[5]; oral, 20 mg/kg
  peak reduction in body temperature (change): −0.63 °C
  time of peak reduction in body temperature: 60 min
[6]
  catalepsy in mice: caused no catalepsy
[7]
  half-life at 0.5 mg/mL: 20.8 days
Dopamine D2 receptors
  Kd: 13.3 µM
